{"source": "paper PMC12177760", "about": "“In Silico Discovery of a Novel Antiviral Scaffold for SARS-CoV‑2 Targeting the Spike Glycoprotein through the Fatty Acid Binding Pocket” (ACS Omega, 2025)", "key": {"[1]": {"target": "S-ACE2 interaction (SARS-CoV-2 S protein trimer, Wuhan strain, with biotinylated-ACE2) (Severe acute respiratory syndrome coronavirus 2, UniProt P0DTC2)", "test": "biochemical", "type": "binding", "settings": "for inhibition of the S-ACE2 interaction: 200 μM"}, "[2]": {"tested_on": "SARS-CoV-2 original Wuhan strain (INMI1 P4) in Vero E6 cells", "test": "microbe, parasite or virus in culture", "type": "cell-based", "settings": "for inhibition at 22 µM: Severe acute respiratory syndrome coronavirus 2, Vero C1008; for inhibition at 22 µM / inhibition at 33 µM: read-out: inhibition of viral induced CPE; for inhibition at 33 µM: Severe acute respiratory syndrome coronavirus 2, Vero C1008, 72 h"}, "[3]": {"tested_on": "SARS-CoV-2 Wuhan strain", "type": "cell-based"}, "[4]": {"tested_on": "SARS-CoV-2 Wuhan strain", "type": "cell-based", "remark": "listed apart in the source"}, "[5]": {"tested_on": "Vero E6 cells", "settings": "200 μM"}, "[6]": {"test": "in vitro", "settings": "African green monkey"}, "[7]": {"tested_on": "RBD-ACE2 binding", "settings": "ref not given, cited from earlier work"}}}
{"smiles": "CCn1c2ccccc2c2cc(NC(=O)c3ccc(OCC(N)=O)cc3)ccc21", "note": "[compound 4]", "values": [{"measurement": "inhibition at 200 µM", "setting": "[1]", "value": 28, "unit": "%"}, {"measurement": "reduction in viral induced CPE", "setting": "[2]; 67 μM", "value": "over 10%"}]}
{"smiles": "Cc1ccc(C(C)N(C)C(=O)CCC(=O)N2CCC(c3ccccc3)=N2)cc1", "note": "(stereo not shown) [compound 27]", "values": [{"measurement": "antiviral activity (qualitative structure-activity relationship, CPE)", "setting": "[2]", "value": "activity maintained"}]}
{"smiles": "CC(=O)c1ccc(N2CCN(Cn3nc4cc(C)c5ccccc5n4c3=S)CC2)cc1", "note": "[compound 1]", "values": [{"measurement": "inhibition at 22 µM", "setting": "[2]", "value": 10, "unit": "%"}]}
{"smiles": "Cc1nc(-c2ccc(C(C)NC(=O)CCC(=O)N3CCC(c4ccccc4)=N3)cc2)cs1", "note": "(stereo not shown) [compound 20]", "values": [{"measurement": "inhibition at 33 µM", "setting": "[2]", "value": 34, "unit": "%"}]}
{"smiles": "CC(c1ccc(-n2cncn2)cc1)N(C)C(=O)CCC(=O)N1CCC(c2ccccc2)=N1", "note": "(stereo not shown) [compound 36]", "values": [{"measurement": "inhibition at 33 µM", "setting": "[2]", "value": 91, "unit": "%"}, {"measurement": "EC50", "setting": "[2]; Severe acute respiratory syndrome coronavirus 2, Vero C1008, read-out: EC50 (inhibition of SARS-CoV-2-induced CPE)", "value": 0.29, "unit": "µM"}, {"measurement": "PFU/mL, drug", "setting": "[3]", "value": "2.49 × 10^7 PFU/mL"}, {"measurement": "reduction of replication-capable lytic virions (TCID50)", "setting": "[3]", "value": 90, "unit": "%"}, {"measurement": "detected viral genomic copies", "setting": "[4]", "value": 16.9, "unit": "copies/20 μL"}, {"measurement": "reduction in number of viral genome copies in the supernatant", "setting": "[4]; 33 μM", "value": 89, "unit": "%"}]}
{"smiles": "O=C(CCc1nc2ccccc2s1)N1CCC(CCc2ccc(O)cc2)CC1", "note": "[compound 9]", "values": [{"measurement": "inhibition at 200 µM", "setting": "[1]", "value": 20, "unit": "%"}]}
{"smiles": "N#Cc1ccc(C2(NC(=O)CCC(=O)N3CCC(c4ccccc4)=N3)CC2)cc1", "note": "[compound 35]", "values": [{"measurement": "inhibition at 33 µM", "setting": "[2]", "value": 16, "unit": "%"}]}
{"smiles": "CS(=O)(=O)N1CCCc2cc(-c3csc(-c4cccc(C(N)=O)c4)n3)ccc21", "note": "[compound 7]", "values": [{"measurement": "inhibition at 200 µM", "setting": "[1]", "value": 20, "unit": "%"}]}
{"smiles": "CC(NC(=O)CCC(=O)N1CCN(c2ccccc2)CC1)c1ccc(-n2cncn2)cc1", "note": "(stereo not shown) [compound 31]", "values": [{"measurement": "inhibition at 33 µM", "setting": "[2]", "value": 8, "unit": "%"}]}
{"smiles": "CC(NC(=O)CCC(=O)N1CCC(c2ccccc2)=N1)c1ccc(-n2cncn2)cc1", "note": "(stereo not shown) [compound 17]", "values": [{"measurement": "inhibition at 200 µM", "setting": "[1]", "value": "~20", "unit": "%"}, {"measurement": "inhibition of the S-ACE2 interaction", "setting": "[1]", "value": "surpassed PEA"}, {"measurement": "reduction in viral induced CPE", "setting": "[2]; 2.5 μM", "value": "over 10%"}, {"measurement": "inhibition at 33 µM", "setting": "[2]", "value": 23, "unit": "%"}, {"measurement": "decrease in the number of infectious virions released", "setting": "[3]", "value": 81, "unit": "%"}, {"measurement": "cytotoxicity", "setting": "[5]", "value": "strong cytotoxicity"}, {"measurement": "CC50", "setting": "[6]", "value": 90, "unit": "µM"}]}
{"smiles": "Cc1cccc(OCC(=O)N2CC=C(c3c[nH]c4ccccc34)CC2)c1C", "note": "[compound 15]", "values": [{"measurement": "inhibition at 200 µM", "setting": "[1]", "value": 20, "unit": "%"}, {"measurement": "inhibition at 22 µM", "setting": "[2]", "value": 10, "unit": "%"}]}
{"smiles": "CC(OC(=O)CCC(=O)N1CCC(c2ccccc2)=N1)c1ccc(-n2cncn2)cc1", "note": "(stereo not shown) [compound 34]", "values": [{"measurement": "inhibition at 33 µM", "setting": "[2]", "value": 19, "unit": "%"}]}
{"smiles": "CC(NC(=O)CCC(=O)N1CCC(c2ccccc2)=N1)c1ccc(-c2ccccc2)cc1", "note": "(stereo not shown) [compound 32]", "values": [{"measurement": "inhibition at 33 µM", "setting": "[2]", "value": 27, "unit": "%"}]}
{"smiles": "CCCCC/C=C\\C/C=C\\CCCCCCCC(=O)O", "note": "[LA, linoleic acid, reference compound]", "values": [{"measurement": "inhibition at 200 µM", "setting": "[1]", "value": 84, "unit": "%"}, {"measurement": "inhibition of the RBD-ACE2 binding", "setting": "[7]; 8.9 mM, in vitro assays", "value": 100, "unit": "%"}]}
{"smiles": "CCCCCCCCCCCCCCCC(=O)NCCO", "note": "[PEA, palmitoylethanolamide, reference compound]", "values": [{"measurement": "inhibition at 200 µM", "setting": "[1]", "value": 17, "unit": "%"}, {"measurement": "reduction of RBD binding with ACE2", "setting": "[7]", "value": "~50", "unit": "%"}]}
{"smiles": "O=C(Nc1nc(-c2ccc3c(c2)CCC3)cs1)c1ccc(CSc2nnc[nH]2)cc1", "note": "[compound 12]", "values": [{"measurement": "inhibition of the S-ACE2 interaction", "setting": "[1]", "value": "surpassed PEA"}]}
